This is an account of results in ChEMBL document CHEMBL1201862, “PubChem BioAssay data set” (2004).

Among the test systems are MOLT-4; SW-620; LOX IMVI; A498; UACC-257; NCI-H226; SK-MEL-28; COLO 205; SNB-19; HOP-62; Malme-3M; ACHN; SR; MDA-MB-231; T47D; MCF7; MDA-N; NCI/ADR-RES; BT-549.
What all share (experiment): NCI-60 cell line screen, 48 h

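96-well plates; 48 h exposure; 5 concentrations. Endpoints by linear interpolation between flanking doses. Not reached: highest tested concentration assigned. Here, GI50 denotes the concentration required for 50% inhibition of growth.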 Active and inactive are the calls of the source. Rule as the data show it: active = GI50 up to about 1.1 µM and inactive = higher.

Take `N#CCCN(c1ccc(-c2nnc(NC(=O)CNNC(=O)CC(=O)Nc3ccccc3)s2)cc1)S(=O)(=O)c1ccccc1`: the GI50 with MOLT-4 is 45.3 µM (inactive); in the assay on SW-620, > 100 µM (inactive); with LOX IMVI, > 100 µM (inactive); in the assay on A498, > 100 µM (inactive); in the assay on UACC-257, > 100 µM (inactive); with NCI-H226 it was 59.3 µM (inactive). For the same molecule, the GI50 in the assay on SK-MEL-28, with COLO 205, in the assay on SNB-19, with HOP-62, in the assay with Malme-3M and in the assay on ACHN was > 100 µM (inactive) in each case.

Take `Cn1cnc([N+](=O)[O-])c1Sc1nnc(-c2ccc(Cl)cc2)n1C`: the GI50 was 6.78 µM (inactive) with MOLT-4; 11.3 µM (inactive) in the assay on SW-620; 7.67 µM (inactive) in the assay on LOX IMVI; 27.8 µM (inactive) in the assay with A498; 7.41 µM (inactive) in the assay on SR; 12.7 µM (inactive) in the assay with UACC-257. Moreover, the GI50 in the assay on NCI-H226 was 21.2 µM (inactive); in the assay with SK-MEL-28 it was 14.2 µM (inactive); in the assay on COLO 205, 11.9 µM (inactive); in the assay on SNB-19, 98.2 µM (inactive); in the assay with HOP-62 it was > 100 µM (inactive); in the assay on Malme-3M it was 10.6 µM (inactive). Further, the GI50 with ACHN is 15.1 µM (inactive).

For the molecule `C1CCCN(NC2=NCCO2)CC1`, the GI50 in the assay on MOLT-4, in the assay with SW-620, in the assay on LOX IMVI, with MDA-MB-231, in the assay on A498 and with T47D was > 100 µM (inactive) throughout. Moreover, the GI50 in the assay on SR, in the assay on UACC-257, with NCI-H226, in the assay with MCF7, with COLO 205 and in the assay on MDA-N was > 100 µM (inactive) throughout. Further, the GI50 in the assay on SNB-19, in the assay on HOP-62, with Malme-3M, in the assay with ACHN and in the assay on NCI/ADR-RES was > 100 µM (inactive) in each case.

Consider `COC(=O)c1ccccc1/C=C1\Cc2ccc3c(c2C1=O)CCC3`, for which the GI50 in the assay with MOLT-4, in the assay with SW-620, in the assay on LOX IMVI, in the assay with MDA-MB-231, in the assay with A498 and in the assay with T47D was > 100 µM (inactive) each time. In addition, the GI50 in the assay with SR, with UACC-257, in the assay on NCI-H226, with MCF7, with SK-MEL-28 and in the assay on COLO 205 was > 100 µM (inactive) in each case. Also, the GI50 in the assay on MDA-N, in the assay on HOP-62, in the assay with Malme-3M, in the assay on ACHN and in the assay on NCI/ADR-RES was > 100 µM (inactive) in each case.

Take `CC(=O)OCC1OC(Sc2nc(-c3ccc(C)cc3)c(C#N)c(=O)n2C2OC(COC(C)=O)C(OC(C)=O)C(OC(C)=O)C2OC(C)=O)C(OC(C)=O)C(OC(C)=O)C1OC(C)=O` (stereo not given): the GI50 in the assay on MOLT-4, with SW-620, in the assay on LOX IMVI, in the assay with BT-549, in the assay with A498 and in the assay with T47D was > 100 µM (inactive) each time. Further, the GI50 in the assay on SR, in the assay on UACC-257, with NCI-H226, in the assay with MCF7, in the assay on SK-MEL-28 and in the assay on SNB-19 was > 100 µM (inactive) each time. The GI50 in the assay with HOP-62, with ACHN and in the assay with NCI/ADR-RES was > 100 µM (inactive) in each case.

For the molecule `O=C(/C=C/c1cccs1)c1ccc([N+](=O)[O-])cc1`, the GI50 in the assay with MOLT-4 is 71 µM (inactive); with SW-620 it was > 100 µM (inactive); in the assay with LOX IMVI, 74.5 µM (inactive); with MDA-MB-231, > 100 µM (inactive); with A498 it was > 100 µM (inactive); in the assay with T47D, > 100 µM (inactive). Moreover, the GI50 is 65.8 µM (inactive) with SR; > 100 µM (inactive) with UACC-257; 78.9 µM (inactive) with NCI-H226; 61.7 µM (inactive) in the assay with MCF7; > 100 µM (inactive) in the assay on SK-MEL-28; > 100 µM (inactive) with COLO 205. For the same molecule, the GI50 is > 100 µM (inactive) in the assay on MDA-N; 94.8 µM (inactive) with SNB-19; > 100 µM (inactive) with HOP-62; > 100 µM (inactive) in the assay on Malme-3M; > 100 µM (inactive) in the assay with ACHN; 83.4 µM (inactive) with NCI/ADR-RES.

As for `CC(C)=Cc1cc(CCC/C(C)=C/Cc2c(O)cc(C)c(C(=O)O)c2O)co1`, the GI50 in the assay on SW-620 is > 100 µM (inactive); with LOX IMVI it was 86.9 µM (inactive); in the assay on MDA-MB-231, 39 µM (inactive); in the assay with BT-549, > 100 µM (inactive); in the assay on T47D, 67.1 µM (inactive); with UACC-257, > 100 µM (inactive). Besides, the GI50 in the assay with MCF7, in the assay with SK-MEL-28, in the assay on COLO 205, in the assay on SNB-19, with HOP-62 and with ACHN was > 100 µM (inactive) in each case. Besides, the GI50 in the assay on NCI/ADR-RES was > 100 µM (inactive).

As for `C#CCN(CC#C)C(=O)C(=O)c1c[nH]c2ccc(OC)cc12`, the GI50 in the assay with MOLT-4 is > 10 µM (inactive); in the assay on SW-620 it was 20.3 µM (inactive); with LOX IMVI it was 18.7 µM (inactive); with MDA-MB-231, 14.9 µM (inactive); in the assay with A498, 15.1 µM (inactive); in the assay on T47D, 24.2 µM (inactive). Also, the GI50 with SR was 11.1 µM (inactive); with UACC-257, 17.5 µM (inactive); with NCI-H226, 18.2 µM (inactive); in the assay with MCF7, 18.6 µM (inactive); with SK-MEL-28, 16.1 µM (inactive); in the assay on COLO 205, 21.6 µM (inactive). The GI50 in the assay with SNB-19 is 16.1 µM (inactive); in the assay on HOP-62, 16.7 µM (inactive); in the assay on Malme-3M, 17.2 µM (inactive); in the assay with ACHN, 21.3 µM (inactive); in the assay with NCI/ADR-RES, 21.8 µM (inactive).

Take `O=[PH]1c2ccccc2Nc2ccccc21`: the GI50 is 26.2 µM (inactive) in the assay on MOLT-4; 63.7 µM (inactive) in the assay with SW-620; > 100 µM (inactive) in the assay on LOX IMVI; 45.9 µM (inactive) in the assay on MDA-MB-231; 21.7 µM (inactive) in the assay with A498; > 100 µM (inactive) in the assay on T47D. Besides, the GI50 with SR, in the assay on UACC-257, with NCI-H226, with MCF7, in the assay with SK-MEL-28 and with COLO 205 was > 100 µM (inactive) each time. Also, the GI50 was > 100 µM (inactive) in the assay on MDA-N; > 100 µM (inactive) in the assay on SNB-19; > 100 µM (inactive) with HOP-62; 80.2 µM (inactive) in the assay on Malme-3M; > 100 µM (inactive) in the assay with ACHN; > 100 µM (inactive) in the assay on NCI/ADR-RES.

For `CCCCCN(CCCCC)CC(C)(C)C(O)c1ccc(OC)c2ccccc12` (stereo not given), the GI50 with MOLT-4 was 3.25 µM (inactive); in the assay with SW-620, 10 µM (inactive); in the assay with LOX IMVI, 1.68 µM (inactive); with MDA-MB-231, 13.8 µM (inactive); in the assay on A498 it was 14.3 µM (inactive); in the assay with T47D, 4.56 µM (inactive). The GI50 in the assay on SR was 2.07 µM (inactive); in the assay with UACC-257, 13.1 µM (inactive); with NCI-H226 it was 16.9 µM (inactive); in the assay with MCF7, 5.13 µM (inactive); with SK-MEL-28 it was 10.5 µM (inactive); in the assay on COLO 205 it was 6.85 µM (inactive). The GI50 with SNB-19 is 10.7 µM (inactive); in the assay on HOP-62, 22.9 µM (inactive); with Malme-3M, 14.1 µM (inactive); in the assay on ACHN, 11.7 µM (inactive); in the assay with NCI/ADR-RES it was 7.05 µM (inactive).

As to `ClCCN(CCCl)c1ccc(/C=N/Nc2ccnc3ccccc23)cc1`, the GI50 is 1.13 µM (inactive) with MOLT-4; 1.87 µM (inactive) in the assay with SW-620; 1.44 µM (inactive) with LOX IMVI; 1.89 µM (inactive) in the assay on MDA-MB-231; 2 µM (inactive) with BT-549; 20.3 µM (inactive) with A498. Moreover, the GI50 is 1.76 µM (inactive) in the assay with T47D; 1.84 µM (inactive) with UACC-257; 1.89 µM (inactive) with NCI-H226; 3.03 µM (inactive) with MCF7; 1.63 µM (inactive) in the assay on SK-MEL-28; 1.86 µM (inactive) with COLO 205. Besides, the GI50 with SNB-19 was 2.33 µM (inactive); in the assay with HOP-62 it was 2.07 µM (inactive); with Malme-3M it was 1.49 µM (inactive); with ACHN it was 1.84 µM (inactive); in the assay with NCI/ADR-RES it was 1.9 µM (inactive).

Turning to `Cc1ccc(-c2n[nH]c(CC#N)n2)cc1`, the GI50 with MOLT-4, in the assay with SW-620, in the assay on LOX IMVI, with BT-549, in the assay with A498 and with T47D was > 100 µM (inactive) in each case. Further, the GI50 in the assay on SR was > 100 µM (inactive); with UACC-257 it was > 100 µM (inactive); in the assay with MCF7, > 100 µM (inactive); in the assay with SK-MEL-28, > 100 µM (inactive); in the assay on COLO 205, > 100 µM (inactive); with SNB-19, 0.608 µM (active). Further, the GI50 in the assay with HOP-62, in the assay with Malme-3M, in the assay with ACHN and in the assay on NCI/ADR-RES was > 100 µM (inactive) throughout.
